Residues, ends and D or L forms follow the SMILES beside them. *: point of attachment. Cbz = O=C(OCc1ccccc1)*; CH2F = FC*

Consider eight compounds from patent US20130065227A1, “METHODS OF INCREASING MACROPINOCYTOSIS IN CANCER CELLS” (priority 2010, published 2013).

Series [1] concerns DU145 cells. In words: Uptake of fluorophore-labeled oligonucleotides by flow cytometry. The series is classed as cell-based. The note with it: 5 μM cytochalasin D for 30 min, then 10 μM FL-AS1411 2 h. On the procedure:
(§1) FIG. 1 are graphs showing that AS1411 cell internalization is an active process. Cells were plated 18 h before uptake analysis. After incubation as described, cells were washed with ice-cold PBS, incubated with 1 μg/ml 7-AAD, harvested and resuspended in 1% paraformaldehyde containing 2 μg/ml actinomycin D, then analyzed by flow cytometry. (Panel A) DU145 cells were incubated at 37° C. with fresh complete DMEM medium containing 10 μM FL-AS1411 (black line) or 10 μM FL-CRO (gray line) for the time indicated. (Panel B) DU145 cells were incubated for 2 h at 37° C. in complete or serum-free DMEM medium containing 10 μM FL-AS1411, or 10 μM FL-CRO, or no oligonucleotide. (Panel C) Various cell lines were incubated with 10 μM FL-AS1411 (black outline histogram), 10 μM FL-CRO (gray outline histogram) or without DNA (solid gray histogram) at 37° C. or 4° C. for 2 h. All experiments were repeated at least three times. Data are mean of three independent samples; bars, SE; *(p<0.05).
(§2) FIG. 2 are graphs showing that AS1411 is internalized by different endocytic mechanisms in DU145 cancer cells and in non-malignant Hs27 cells. DU145 or Hs27 cells were plated 18 h before uptake analysis. Cells were pre-treated as described with inhibitor (gray histogram) or the corresponding vehicle control (black histogram) before addition of 10 μM FL-AS1411 and incubation at 37° C. for 2 h. After incubation, cells were harvested and analyzed by flow cytometry. Pre-treatment conditions were at 37° C. with: (Panel A) 5 μM Cytochalasin D for 30 min; (Panel B) 80 μM Dynasore for 30 min; or (Panel C) 3 mM amiloride for 1 h. All experiments were repeated at least three times and representative data are shown. Solid gray histograms represent background autofluorescence of unstained cells.
DU145 cells were transfected for 48 h without siRNA (mock, M), or with 30 nM of one of three different nucleolin siRNAs (NCL1, NCL2, NCL3) or a control siRNA (scramble, S), or contransfected with 10 nM of each nucleolin siRNAs (mix). (Panel A) Cells were lysed and total cell lyses were analyzed by Western blotting using the antibodies shown. (Panel B) Cell-surface proteins from intact transfected DU145 cells were labeled covalently with membrane-impermeable biotinylating agent. Cells were lysed, then biotinylated plasma membrane proteins were captured with streptavidin-agarose beads and analyzed by blotting with anti-nucleolin antibody (upper panel). After stripping, the membrane was reprobed with antibodies for a plasma membrane marker (anti-pan Cadherin) and a nuclear marker (anti-histone 3) to confirm the fractionation. Total lysate (Lys) was used as control. (Panel C) The medium of transfected cells was replaced by fresh complete DMEM medium containing no oligonucleotide (gray dashed histogram) or 10 μM FL-CRO (gray solid line histogram) or 10 μM FL-AS1411 (black solid line histogram) and incubated at 37° C. for 2 h. After incubation, cells were harvested and analyzed by flow cytometry.
DU145 cells were plated 18 hr before uptake analysis. Cell medium was changed with fresh complete DMEM medium containing different concentrations of FL-AS1411 (black line) or FL-CRO (gray line), and incubated at 37° C. for 2 hrs. After incubation, cells were harvested and analyzed by flow cytometry.
FIG. 9 are graphs showing the effects of inhibitors on various endocytic pathways. DU145 or Hs27 cells were plated 18 hr before uptake analysis. (Panel A) DU145 cells were pre-treated with dynamin inhibitor, […] Dynasore (black histogram) or DMSO (gray histogram) for 30 min at 37° C. After pre-treatment, cells were treated with […] transferrin conjugated with Alexa Fluor 488 for 30 min at 37° C. (Panel B) DU145 and Hs27 cells were pre-treated with 3 mM amiloride (black histogram) or vehicle (serum-free medium, gray histogram) for 1 h at 37° C. After pre-treatment, FL-CRO was added at a concentration of 10 μM and incubated at 37° C. for 2 h. After incubation, cells were harvested and analyzed by FACS. […]

The next series deals with Hs27 cells. The description is as above. The format is cell-based, human. To be noted: 5 μM cytochalasin D for 30 min, then 10 μM FL-AS1411 2 h. On the procedure:
as §1, §2
FIG. 9 are graphs showing the effects of inhibitors on various endocytic pathways. DU145 or Hs27 cells were plated 18 hr before uptake analysis. (Panel A) DU145 cells were pre-treated with dynamin inhibitor, […] Dynasore (black histogram) or DMSO (gray histogram) for 30 min at 37° C. After pre-treatment, cells were treated with […] transferrin conjugated with Alexa Fluor 488 for 30 min at 37° C. (Panel B) DU145 and Hs27 cells were pre-treated with 3 mM amiloride (black histogram) or vehicle (serum-free medium, gray histogram) for 1 h at 37° C. After pre-treatment, FL-CRO was added at a concentration of 10 μM and incubated at 37° C. for 2 h. After incubation, cells were harvested and analyzed by FACS. Gray solid histogram represents unstained cells.
To analyze uptake of the oligodeoxynucleotides or dextran-10K (macropinocytic marker) by flow cytometry, 2×10^5 cells in fresh supplemented culture medium (2.5 ml) were plated into 6-well plates for 18 h. […]

The next series deals with DU145. Nature of the series: Stimulation of macropinocytosis (dextran uptake). The series is classed as cell-based. To be noted: 10 μM for 24, 48, or 72 h, flow cytometry. Here is the method: (Panel A) DU145 cells were treated with 10 μM tAS1411 or 10 μM tCRO or no oligonucleotide in complete DMEM medium at 37° C. for the time indicated. After treatment, cell medium was changed for fresh complete medium containing 0.2 mg/ml dextran-10K labeled with Alexa Fluor 488, and cells were incubated for 30 min at 37° C. After incubation, cells were harvested and analyzed by flow cytometry to determine dextran uptake. (Panel B) The same experiment was performed using Hs27 cells. (Panel C) DU145 cells were treated with 10 μM tAS1411 or 10 μM tCRO or no oligonucleotide in complete DMEM medium at 37° C. for 48 h. After treatment, cell medium was changed for fresh complete medium containing 0.2 mg/ml dextran-10K tagged with Alexa Fluor 488, and cells were incubated for 30 min at 37° C. Then, cells were washed with cold PBS, added PBS containing 5 μg/ml PI and incubated on ice for 5 min. After washing with cold PBS, cells were fixed and the distribution of macropinocytic marker was visualized by confocal microscopy. The nucleus was stained with DAPI (blue). Scale bars, 10 μm. All experiments have been repeated at least three times. Data are mean of three independent samples; bars, SE; *(p<0.05).
FIG. 6 are graphs showing that nucleolin regulates AS1411-induced stimulation of macropinocytosis. DU145 cells were untreated (no transfection) or transfected, without siRNA (mock), or with 30 nM of one of three different nucleolin siRNAs (NCL1, NCL2, NCL3) or a control siRNA (scramble). 48 h after transfection, cells were incubated with 10 μM tAS1411, 10 μM tCRO, or no oligonucleotide in complete DMEM medium at 37° C. for 24 h. (Panel A) After treatment, cell medium was changed for fresh complete medium containing 0.2 mg/ml dextran-10K labeled with Alexa Fluor 488 (green) and incubated for 30 min at 37° C. (Panel B) After treatment, some cells were washed, fresh complete medium containing 10 μM FL-AS1411 added and incubated for 2 h at 37° C. After incubation, cells were harvested and analyzed by flow cytometry. Mean fluorescence was normalized to “not transfected” control (Panel A) or to no pre-treatment control (Panel B). All experiments have been repeated at least three times. Data are the mean of three independent samples; bars, SE; *(p<0.05).
FIG. 11 is a graph showing a comparison between AS1411 and tAS1411 in the ability to stimulate macropinocytosis. DU145 cells were plated 18 hr before treatment with different concentrations (0, 5, 10, or 15 μM) of AS1411, tAS1411 or tCRO in complete DMEM medium at 37° C. for 48 h. After treatment, cell medium was changed for fresh complete medium containing 0.2 mg/ml dextran-10K labeled with Alexa Fluor 488, and cells were incubated for 30 min at 37° C. After incubation, cells were incubated on ice with […] PI in PBS, harvested, fixed and immediately analyzed by flow cytometry.
To analyze uptake of the oligodeoxynucleotides or dextran-10K (macropinocytic marker) by flow cytometry, 2×10^5 cells in fresh supplemented culture medium (2.5 ml) were plated into 6-well plates for 18 h. After complete adhesion, the cells were incubated with 5′-FAM tagged oligodeoxynucleotides or Alexa Fluor 488 tagged dextran-10K and incubated as indicated in the Description of the Drawings. Cells were washed once with ice-cold PBS, incubated with 1 μg/ml 7-amino-actinomycin D (7-AAD) for 5 min on ice or 1 μg/ml propidium iodide (PI), and washed twice with ice-cold PBS. Cells were then treated with 0.01% trypsin/0.5 mM EDTA (300 μl) for 3 min prior addition 3 ml supplemented culture medium. The cells were then centrifuged and resuspended in 0.5 ml of 1% paraformaldehyde for analysis by flow cytometry using a FACScalibur cytometer (BD Biosciences, Mountain View, Calif.).
AS1411 causes a change in cancer cell morphology that is characterized by vacuolization, irregular nuclei, and swollen cells (Xu et al., 2001, J. Biol. Chem., 276:43221-30). […]

A further series has as its system U937 leukemia cells. Nature of the series: Cell death mechanism (DNA laddering, immunoblotting, electron microscopy). The series is classed as cell-based. Here is the method:
(A) Trypan blue staining of U937 leukemia cells showing percentage of dead cells (trypan blue positive) over time. (B) U937 cells were untreated (Un) or treated with 1 μM AS1411 (1411) or control oligonucleotide (Ctrl) for 72 h. DNA was extracted, electrophoresed on an agarose gel and stained with ethidium bromide to probe DNA laddering. As a positive control, […] were treated with UV irradiation to induce apoptosis as previously described. […] (D) U937 cells treated as described for panel B, followed by protein extraction and immunoblotting (IB) to detect PARP cleavage and Caspase-3 activation. (E) DU145 prostate cancer cells were incubated with 10 μM of AS1411 for 24 h, or irradiated with UV (300 J/m^2 with UV Stratalinker 2400, Strategene), then cultured in fresh medium for 6 h. Assessment of cell death was carried out by flow cytometry to detect Annexin V-FITC binding and PI staining.

Series [2] has as its system DU145 cells. The series is classed as cell-based. Here is the method: DU145 cells were incubated for 4 days in the presence of 10 μM AS1411 with 3-MA at the concentration indicated, and cell number was assessed by MTT assay.
It also appears unlikely that AS1411-induced cell death is due to autophagy. […] Further evidence that supports the idea that AS1411 can induce methuosis comes from the similarity between the appearance of cells treated with AS1411 and published images of glioblastoma cells undergoing Ras-induced methuosis.

Consider `C=C1[C@@H](C)[C@H]2[C@H](Cc3ccccc3)NC(=O)[C@]23[C@H](OC(C)=O)/C=C/[C@@](C)(O)C(=O)[C@@H](C)C/C=C/[C@H]3[C@@H]1O` [Cytocholasin D, Cytochalasin D, reference compound], for which the “effect of pre-treatment on FL-AS1411 uptake” value in the series on DU145 cells [1] and in the series on Hs27 cells was “decrease in FL-AS1411 uptake” throughout.

With “5′-d(TTTCCTCCTCCTCCTTCTCCTCCTCCTCC) (DNA TTTCCTCCTCCTCCTTCTCCTCCTCCTCC; unmodified DNA) [tCRO, reference compound]”, the “uptake of the macropinocytic marker, dextran, after treatment” value with DU145 was “No changes in dextran uptake”.

With `COC(=O)C[C@H](NC(=O)[C@H](C)NC(=O)[C@@H](NC(=O)OCc1ccccc1)C(C)C)C(=O)CF` [zVAD-fmk] (Cbz-Val-Ala-Asp(OMe)-CH2F), the “effect of pre-incubation on AS1411-induced cell death” value (“effect of pre-incubation” below) in the series with U937 leukemia cells is “did not inhibit AS1411-induced cell death”.

Regarding `COC(=O)CC[C@H](NC(=O)[C@H](CC(C)C)NC(=O)OCc1ccccc1)C(=O)N[C@@H](Cc1cnc[nH]1)C(=O)N[C@@H](CC(=O)OC)C(=O)CF` [zLEHD-fmk] (Cbz-LE(OMe)HD(OMe)-CH2F), the “effect of pre-incubation” value with U937 leukemia cells is “did not inhibit AS1411-induced cell death”.

As for `NC(=O)c1cccc(N)c1` [3-aminobenzamide], the “effect of pre-incubation” value in the series with U937 leukemia cells is “did not inhibit AS1411-induced cell death”.

As to `Cn1cnc(N)c2ncnc1-2` [3-methyladenine], the “toxicity of the inhibitor alone” value with DU145 cells [2] is “some toxicity by itself”. Besides, in the series on DU145 cells [2] (4 days, 10 μM AS1411), the “effect on AS1411 activity” value is given as “did not inhibit AS1411 activity”.

As for `COC(=O)CC[C@H](NC(=O)[C@H](CC(=O)OC)NC(=O)OCc1ccccc1)C(=O)N[C@H](C(=O)N[C@@H](CC(=O)OC)C(=O)CF)C(C)C` [zDEVD-fmk], the “effect of pre-incubation” value in the series on U937 leukemia cells is given as “did not inhibit AS1411-induced cell death”.

For `CC[C@H](C)[C@H](NC(=O)OCc1ccccc1)C(=O)N[C@@H](CCC(=O)OC)C(=O)N[C@H](C(=O)N[C@@H](CC(=O)OC)C(=O)CF)[C@@H](C)O` [zIETD-fmk] (Cbz-IE(OMe)TD(OMe)-CH2F), the “effect of pre-incubation” value in the series with U937 leukemia cells is reported as “did not inhibit AS1411-induced cell death”.
